Measured values from the supplement of paper PMC4862054.

The compounds below were run on HCC1599 (assay: normalised response (% of control), CellTiter-Glo; higher = more viable cells (100 = DMSO, 0 = benzethonium chloride kill control)). Details: incubation time: 72 h.
Experimental: (§1)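 DSRT, 72 h incubation, CellTox Green / CellTiter-Glo readout. Signal is normalised to DMSO and benzethonium chloride controls. Value is the normalised response at dose 3.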

Compound | normalised response
Cn1c(=O)n(-c2ccc(C(C)(C)C#N)cc2)c2c3cc(-c4cnc5ccccc5c4)ccc3ncc21 [Dactolisib] (10 nM) | 97.5%

Each compound was assayed on CAL-148 in the same assay as above. Details: incubation time: 72 h.
Experimental: as §1

Compound | normalised response
Cn1c(=O)n(-c2ccc(C(C)(C)C#N)cc2)c2c3cc(-c4cnc5ccccc5c4)ccc3ncc21 [Dactolisib] (10 nM) | 88.5%

Each compound was assayed on MDA-MB-231 in the same assay as above. Details: incubation time: 72 h.
Experimental: as §1

Compound | normalised response
Cn1c(=O)n(-c2ccc(C(C)(C)C#N)cc2)c2c3cc(-c4cnc5ccccc5c4)ccc3ncc21 [Dactolisib] (10 nM) | 80.3%

Each compound was assayed on MDA-MB-436 in the same assay as above. Details: incubation time: 72 h.
Experimental: as §1

Compound | normalised response
Cn1c(=O)n(-c2ccc(C(C)(C)C#N)cc2)c2c3cc(-c4cnc5ccccc5c4)ccc3ncc21 [Dactolisib] (10 nM) | 65.9%

Each compound was assayed on MDA-MB-453 in the same assay as above. Details: incubation time: 72 h.
Experimental: as §1

Compound | normalised response
Cn1c(=O)n(-c2ccc(C(C)(C)C#N)cc2)c2c3cc(-c4cnc5ccccc5c4)ccc3ncc21 [Dactolisib] (10 nM) | 75.9%

These compounds were tested on HDQ-P1 in the same assay as above. Details: incubation time: 72 h.
Experimental: as §1

Compound | normalised response
Cn1c(=O)n(-c2ccc(C(C)(C)C#N)cc2)c2c3cc(-c4cnc5ccccc5c4)ccc3ncc21 [Dactolisib] (10 nM) | 80.1%

What follows are compounds tested on MFM-223 in the same assay as above. Details: incubation time: 72 h.
Experimental: as §1

Compound | normalised response
Cn1c(=O)n(-c2ccc(C(C)(C)C#N)cc2)c2c3cc(-c4cnc5ccccc5c4)ccc3ncc21 [Dactolisib] (10 nM) | 83.8%

The compounds below were run on BT-474 in the same assay as above. Details: incubation time: 72 h.
Experimental: as §1

Compound | normalised response
Cn1c(=O)n(-c2ccc(C(C)(C)C#N)cc2)c2c3cc(-c4cnc5ccccc5c4)ccc3ncc21 [Dactolisib] (10 nM) | 80.5%

What follows are compounds tested on CAL-120 in the same assay as above. Details: incubation time: 72 h.
Experimental: as §1

Compound | normalised response
Cn1c(=O)n(-c2ccc(C(C)(C)C#N)cc2)c2c3cc(-c4cnc5ccccc5c4)ccc3ncc21 [Dactolisib] (10 nM) | 62.1%

Each compound was assayed on CAL-51 in the same assay as above. Details: incubation time: 72 h.
Experimental: as §1

Compound | normalised response
Cn1c(=O)n(-c2ccc(C(C)(C)C#N)cc2)c2c3cc(-c4cnc5ccccc5c4)ccc3ncc21 [Dactolisib] (10 nM) | 68.4%

Each compound was assayed on MDA-MB-468 in the same assay as above. Details: incubation time: 72 h.
Experimental: as §1

Compound | normalised response
Cn1c(=O)n(-c2ccc(C(C)(C)C#N)cc2)c2c3cc(-c4cnc5ccccc5c4)ccc3ncc21 [Dactolisib] (10 nM) | 84.3%

These compounds were tested on CAL-85-1 in the same assay as above. Details: incubation time: 72 h.
Experimental: as §1

Compound | normalised response
Cn1c(=O)n(-c2ccc(C(C)(C)C#N)cc2)c2c3cc(-c4cnc5ccccc5c4)ccc3ncc21 [Dactolisib] (10 nM) | 62.9%

What follows are compounds tested on DU-4475 in the same assay as above. Details: incubation time: 72 h.
Experimental: as §1

Compound | normalised response
Cn1c(=O)n(-c2ccc(C(C)(C)C#N)cc2)c2c3cc(-c4cnc5ccccc5c4)ccc3ncc21 [Dactolisib] (10 nM) | 96.3%

The compounds below were run on BT-549 in the same assay as above. Details: incubation time: 72 h.
Experimental: as §1

Compound | normalised response
Cn1c(=O)n(-c2ccc(C(C)(C)C#N)cc2)c2c3cc(-c4cnc5ccccc5c4)ccc3ncc21 [Dactolisib] (10 nM) | 61.5%

What follows are compounds tested on MCF-10A in the same assay as above. Details: incubation time: 72 h.
Experimental: as §1

Compound | normalised response
Cn1c(=O)n(-c2ccc(C(C)(C)C#N)cc2)c2c3cc(-c4cnc5ccccc5c4)ccc3ncc21 [Dactolisib] (10 nM) | 99.8%

Each compound was assayed on HCC1937 in the same assay as above. Details: incubation time: 72 h.
Experimental: as §1

Compound | normalised response
Cn1c(=O)n(-c2ccc(C(C)(C)C#N)cc2)c2c3cc(-c4cnc5ccccc5c4)ccc3ncc21 [Dactolisib] (10 nM) | 85.5%

The compounds below were run on SK-BR-3 in the same assay as above. Details: incubation time: 72 h.
Experimental: as §1

Compound | normalised response
Cn1c(=O)n(-c2ccc(C(C)(C)C#N)cc2)c2c3cc(-c4cnc5ccccc5c4)ccc3ncc21 [Dactolisib] (10 nM) | 73.6%

The compounds below were run on HCC1143 in the same assay as above. Details: incubation time: 72 h.
Experimental: as §1

Compound | normalised response
Cn1c(=O)n(-c2ccc(C(C)(C)C#N)cc2)c2c3cc(-c4cnc5ccccc5c4)ccc3ncc21 [Dactolisib] (10 nM) | 78%

These compounds were tested on HCC1599 (assay: normalised response (% of control), CellTox Green; higher = less cell death (100 = DMSO, 0 = benzethonium chloride kill control)). Details: incubation time: 72 h.
How it was run: (§2)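 A 20 µl suspension of breast cancer cells was seeded into each well of 384-well plates containing compound at 5 concentrations in 10-fold steps over a compound-specific 10,000-fold range. After 72 h incubation, CellTox Green fluorescence (485/520 nm) was read first, and CellTiter-Glo luminescence was read after 10 min at room temperature. Each plate was normalised against 0.1 % DMSO (100) and a positive kill control (0), and each value is the normalised signal at one concentration.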

Compound | normalised response
CNNCc1ccc(C(=O)NC(C)C)cc1 [Procarbazine] (10000 nM) | 98.3%
Nc1nc(OCc2cc(Br)cs2)c2[nH]cnc2n1 [Lomeguatrib] (10000 nM) | 99.2%
Cn1c(=O)n(-c2ccc(C(C)(C)C#N)cc2)c2c3cc(-c4cnc5ccccc5c4)ccc3ncc21 [Dactolisib] (10 nM) | 115%
CN1CCN(CCOc2cc(OC3CCOCC3)c3c(Nc4c(Cl)ccc5c4OCO5)ncnc3c2)CC1 [Saracatinib] (10000 nM) | 76.6%
c1ccc([C@H]2CN3CCSC3=N2)cc1 [Levamisole] (10000 nM) | 92.5%

Each compound was assayed on CAL-148 in the same assay as above. Details: incubation time: 72 h.
How it was run: as §2

Compound | normalised response
CNNCc1ccc(C(=O)NC(C)C)cc1 [Procarbazine] (10000 nM) | 93%
Nc1nc(OCc2cc(Br)cs2)c2[nH]cnc2n1 [Lomeguatrib] (10000 nM) | 69.2%
Cn1c(=O)n(-c2ccc(C(C)(C)C#N)cc2)c2c3cc(-c4cnc5ccccc5c4)ccc3ncc21 [Dactolisib] (10 nM) | 103%
CN1CCN(CCOc2cc(OC3CCOCC3)c3c(Nc4c(Cl)ccc5c4OCO5)ncnc3c2)CC1 [Saracatinib] (10000 nM) | 68.4%
c1ccc([C@H]2CN3CCSC3=N2)cc1 [Levamisole] (10000 nM) | 53.5%

These compounds were tested on MDA-MB-231 in the same assay as above. Details: incubation time: 72 h.
How it was run: as §2

Compound | normalised response
CNNCc1ccc(C(=O)NC(C)C)cc1 [Procarbazine] (10000 nM) | 99%
Nc1nc(OCc2cc(Br)cs2)c2[nH]cnc2n1 [Lomeguatrib] (10000 nM) | 112%
Cn1c(=O)n(-c2ccc(C(C)(C)C#N)cc2)c2c3cc(-c4cnc5ccccc5c4)ccc3ncc21 [Dactolisib] (10 nM) | 120%
CN1CCN(CCOc2cc(OC3CCOCC3)c3c(Nc4c(Cl)ccc5c4OCO5)ncnc3c2)CC1 [Saracatinib] (10000 nM) | 51.3%

What follows are compounds tested on MDA-MB-436 in the same assay as above. Details: incubation time: 72 h.
How it was run: as §2

Compound | normalised response
CNNCc1ccc(C(=O)NC(C)C)cc1 [Procarbazine] (10000 nM) | 81.7%
Nc1nc(OCc2cc(Br)cs2)c2[nH]cnc2n1 [Lomeguatrib] (10000 nM) | 94.1%
Cn1c(=O)n(-c2ccc(C(C)(C)C#N)cc2)c2c3cc(-c4cnc5ccccc5c4)ccc3ncc21 [Dactolisib] (10 nM) | 102%

These compounds were tested on MDA-MB-453 in the same assay as above. Details: incubation time: 72 h.
How it was run: as §2

Compound | normalised response
CNNCc1ccc(C(=O)NC(C)C)cc1 [Procarbazine] (10000 nM) | 60.5%
Nc1nc(OCc2cc(Br)cs2)c2[nH]cnc2n1 [Lomeguatrib] (10000 nM) | 92.8%
Cn1c(=O)n(-c2ccc(C(C)(C)C#N)cc2)c2c3cc(-c4cnc5ccccc5c4)ccc3ncc21 [Dactolisib] (10 nM) | 108%
CN1CCN(CCOc2cc(OC3CCOCC3)c3c(Nc4c(Cl)ccc5c4OCO5)ncnc3c2)CC1 [Saracatinib] (10000 nM) | 79%
c1ccc([C@H]2CN3CCSC3=N2)cc1 [Levamisole] (10000 nM) | 71.4%

These compounds were tested on HDQ-P1 in the same assay as above. Details: incubation time: 72 h.
How it was run: as §2

Compound | normalised response
CNNCc1ccc(C(=O)NC(C)C)cc1 [Procarbazine] (10000 nM) | 99.9%
Nc1nc(OCc2cc(Br)cs2)c2[nH]cnc2n1 [Lomeguatrib] (10000 nM) | 104%
Cn1c(=O)n(-c2ccc(C(C)(C)C#N)cc2)c2c3cc(-c4cnc5ccccc5c4)ccc3ncc21 [Dactolisib] (10 nM) | 116%
CN1CCN(CCOc2cc(OC3CCOCC3)c3c(Nc4c(Cl)ccc5c4OCO5)ncnc3c2)CC1 [Saracatinib] (10000 nM) | 68.9%
